Data taken from publication PMC12481569, “Novltex: A New Class of Antibiotics with Potent Activity against Multidrug-Resistant Bacterial Pathogens–Design, Synthesis, and Biological Evaluation” (Journal of Medicinal Chemistry, 2025).
Values after ≈ are worked out from the molar mass of the structure shown. Positions of bridges follow the written chain, without caps; N, C: chain ends. Non-standard residues stand in square brackets, D forms with d. Residues, ends and D or L forms follow the SMILES beside them. dCha = N[C@H](CC1CCCCC1)C(=O)O

Legend:
[1] = test system: Multidrug-Resistant (MDR) S. aureus; test: microbe, parasite or virus in culture; details: MHB, 0.002% polysorbate 80, 37 °C, 24 h, daptomycin with 50 mg/L calcium chloride
MRSA ATCC 33591 = test: microbe, parasite or virus in culture; assay type: cell-based, Staphylococcus aureus; details: Table 2; MHB with 0.002% polysorbate 80, 37 °C, 24 h, two independent duplicates
Experimental: MICs were performed as previously reported 4. For MIC testing all peptides were dissolved in DMSO.
Bacterial cultures were grown overnight on Mueller-Hinton Agar (MHA) plates and adjusted to a final inoculum of 10^5 – 10^6 CFU/mL. 100 µl of ino culum in Meuller -Hinton broth (MHB) was mixed with equal volume of peptides (dissolved in MHB) at 2x their concentration in a 96 well plate . For daptomycin MIC determination, the same protocol was followed with the addition of 50 mg/L calcium chloride to the medium. MIC values were determined in the media contain ing polysorbate 80 (0.002%, v/v) to prevent non -specific adsorption of the peptides to plastic surfaces. The final peptides concentrations ranged from 0.0625 – 32 µg/mL. The 96 well plates were then incubated at 37 °C for 24 h. All the experiments were performed in two independent duplicates and the MIC was determined as the lowest concentration in which no visible growth was observed. […]

CC(C)C[C@@H]1NC(=O)[C@H](C)NC(=O)[C@H](NC(=O)[C@H](CO)NC(=O)[C@@H](CCCCN)NC(=O)[C@@H](CC2CCCCC2)NC(=O)[C@@H](N)Cc2ccccc2)[C@H](C)OC(=O)[C@H](CC(C)C)NC1=O [analogue 12, Leu2Cha–Novltex] (H-F[dCha][dK]S[dT]ALL; ester 5-C)
MIC, Staphylococcus aureus NR 45914 ([1]; MDR strain NR 45914): 0.125 µg/mL (≈ 0.137 µM) | MIC, Staphylococcus aureus NR 45926 ([1]; MDR strain NR 45926): 0.125 µg/mL (≈ 0.137 µM) | MIC, Staphylococcus aureus NR 45930 ([1]; MDR strain NR 45930): 0.125 µg/mL (≈ 0.137 µM) | MIC, Staphylococcus aureus NR 46062 ([1]; MDR strain NR 46062): 0.063 µg/mL (≈ 0.0689 µM) | MIC against MRSA ATCC 33591 (MRSA ATCC 33591): 0.25 µg/mL (≈ 0.273 µM)
